Reference: PubChem BioAssay (NCI)
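Values below derive from 48-hour exposures of cells grown in 96-well plates, with endpoints linearly interpolated between the two concentrations bracketing the appropriate inhibition level. Definition used: TGI = concentration required for complete inhibition of growth.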

Assays:
Assay in all cases: NCI-60 cell line screen, 48 h
A549 NSCLC = tested on: A549 NSCLC
CAKI-1 renal = tested on: CAKI-1 renal
HCT-116 colon = tested on: HCT-116 colon
HOP-92 NSCLC = tested on: HOP-92 NSCLC
OVCAR-8 ovarian = tested on: OVCAR-8 ovarian
SF-539 CNS = tested on: SF-539 CNS
SK-MEL-5 melanoma = tested on: SK-MEL-5 melanoma
SW-620 colon = tested on: SW-620 colon
UO-31 renal = tested on: UO-31 renal
CCRF-CEM leukemia = tested on: CCRF-CEM leukemia

Row | Structure (SMILES) | TGI (A549 NSCLC) | TGI (CAKI-1 renal) | TGI (HCT-116 colon) | TGI (HOP-92 NSCLC) | TGI (OVCAR-8 ovarian) | TGI (SF-539 CNS) | TGI (SK-MEL-5 melanoma) | TGI (SW-620 colon) | TGI (UO-31 renal) | TGI (CCRF-CEM leukemia)
1 | N#Cc1c(N)c(-c2ccc(Cl)cc2)c(F)c2ccccc12 | > 100 µM | > 100 µM | > 100 µM | 59.4 µM | > 100 µM | > 100 µM | > 100 µM | > 100 µM | > 100 µM | –
2 | CC1=NN(c2ccc(C)cc2)C2(C1)SCC(=O)N2c1nc2ccccc2s1 (configuration not stated) | > 100 µM | > 100 µM | 51.1 µM | > 100 µM | > 100 µM | 46.8 µM | 24.2 µM | > 100 µM | > 100 µM | 28.4 µM
3 | O=C1NC(=O)/C(=C\c2ccncc2)N1 | > 100 µM | > 100 µM | > 100 µM | > 100 µM | > 100 µM | > 100 µM | > 100 µM | > 100 µM | > 100 µM | –
4 | COc1ccccc1C(=O)c1c(N2CCCCC2)c(=O)c1=O | > 100 µM | > 100 µM | > 100 µM | > 100 µM | > 100 µM | > 100 µM | > 100 µM | > 100 µM | > 100 µM | > 100 µM
5 | O=C1c2cc3c(cc2CC12Cc1cc4c(cc1C2)CCC4)CCC3 | > 100 µM | > 100 µM | > 100 µM | > 100 µM | > 100 µM | > 100 µM | > 100 µM | > 100 µM | > 100 µM | > 100 µM
6 | Cc1ncc([N+](=O)[O-])n1CCN=[N+]=[N-] | > 100 µM | > 100 µM | > 100 µM | > 100 µM | > 100 µM | > 100 µM | > 100 µM | > 100 µM | > 100 µM | –
7 | Cc1ccc(S(=O)(=O)C(C#N)c2nc3ccccc3nc2-n2cccn2)cc1 (configuration not stated) | > 100 µM | – | > 100 µM | > 100 µM | > 100 µM | > 100 µM | – | – | > 100 µM | > 100 µM
8 | O=C1C/C(=C\O)C(=O)c2ccccc2N1 | > 100 µM | > 100 µM | > 100 µM | > 100 µM | > 100 µM | > 100 µM | > 100 µM | – | > 100 µM | > 100 µM
9 | CNc1ccc2nc(-c3ccc(OC(=O)N(C)C)cc3)cn2c1 | 32.4 µM | 44.7 µM | 33.5 µM | 50 µM | 30.3 µM | – | 57.1 µM | 51.4 µM | 35.4 µM | 32.3 µM
10 | N#Cc1c(=O)c2cccnc2n2c1[nH]c1ccccc12 | > 100 µM | > 100 µM | > 100 µM | 68.4 µM | > 100 µM | > 100 µM | – | > 100 µM | > 100 µM | > 100 µM
11 | O=C1c2cc([N+](=O)[O-])ccc2NC2C(O)c3ccccc3N12 (configuration not stated) | > 100 µM | 54 µM | > 100 µM | 53.6 µM | 65 µM | 74.7 µM | > 100 µM | – | > 100 µM | –
12 | Cc1ccc(Nc2nc(=O)[nH]c(=O)[nH]2)cc1N | > 100 µM | > 100 µM | > 100 µM | > 100 µM | > 100 µM | > 100 µM | > 100 µM | > 100 µM | – | > 100 µM
13 | CC1(C)CC(=O)C(/C=N/c2nc(-c3ccc(Br)cc3)cs2)=C(O)C1 | > 100 µM | 63.3 µM | > 100 µM | > 100 µM | > 100 µM | 61 µM | > 100 µM | > 100 µM | 73.1 µM | –
14 | CC(=O)Oc1ccc2cc(Oc3ccc(Cl)cc3)c(=O)oc2c1 | 94 µM | > 100 µM | > 100 µM | > 100 µM | 54 µM | 82.7 µM | 41.9 µM | > 100 µM | > 100 µM | –
15 | c1ccc2c3c(ccc2c1)CSCc1ccc2ccccc2c1-3 | > 100 µM | > 100 µM | > 100 µM | > 100 µM | > 100 µM | > 100 µM | > 100 µM | – | > 100 µM | > 100 µM
16 | CCCCCCCCCCCCOC1C(COCCN2CCCC2)OC2OC(C)(C)OC21 (configuration not stated) | 16.1 µM | 3.04 µM | 3.13 µM | 2.72 µM | 3.03 µM | 3.17 µM | 2.95 µM | – | 2.96 µM | 5.39 µM
17 | CCOC(=O)c1cc(-c2ccc(OC)c(OC)c2)c[nH]1 | > 10 µM | > 10 µM | > 10 µM | > 10 µM | > 10 µM | > 10 µM | > 10 µM | – | > 10 µM | > 10 µM
18 | C/C(=N\N=C(N)N)c1c(C(=O)OCCCCCCOC(=O)c2nc3sccn3c2/C(C)=N/N=C(N)N)nc2sccn12 | > 100 µM | > 100 µM | > 100 µM | > 100 µM | > 100 µM | – | > 100 µM | > 100 µM | > 100 µM | 63.2 µM
19 | CC1=NN(c2nc(N)nc(/C(C#N)=C/c3ccncc3)n2)C(C)(C)C1 | – | > 100 µM | > 100 µM | > 100 µM | > 100 µM | > 100 µM | > 100 µM | > 100 µM | > 100 µM | > 100 µM
20 | CC1=NNC(N)=N/C1=C/C(Sc1ccc(Cl)cc1)c1cccs1 (configuration not stated) | 38.8 µM | 53.9 µM | 29.8 µM | > 100 µM | 57.2 µM | – | 25.6 µM | 41.7 µM | 17.7 µM | 9.79 µM
21 | NC1=NS(=O)(=O)N=C(N)C1=Cc1ccc([N+](=O)[O-])o1 | > 100 µM | – | 28.7 µM | 26.7 µM | 33.3 µM | 32.3 µM | 28.6 µM | 32.7 µM | 31.8 µM | 92.8 µM
22 | Cc1ccc(-c2cc(-c3ccc(Cl)cc3)nc(/N=C3\C(=O)N(CN4CCCCC4)c4ccc(Cl)cc43)n2)cc1 | 57.2 µM | 64.7 µM | 76.1 µM | 51.2 µM | 38.8 µM | 61.5 µM | 48.1 µM | > 100 µM | – | > 100 µM
23 | Cc1cccc(NC(=O)CC(=O)N2N=C(N3c4ccccc4Sc4ccccc43)CC2c2ccccc2)c1 (configuration not stated) | > 100 µM | – | > 100 µM | > 100 µM | > 100 µM | > 100 µM | > 100 µM | > 100 µM | > 100 µM | > 100 µM
